Experimental data as given in PubChem BioAssay AID2060619 (Molecular Pharmacology Branch, DTP, NCI, 2025).
pIC50: −log10 of the molar value.

Test system: 323965-272-R-J2-PDC complex spheroid viability
Assay: Anticancer human tumor 323965-272-R-J2-PDC patient-derived pancreatic carcinoma cell line growth inhibition [CLK]
Settings: for pIC50: curve of first compound; for viability, T/C: stronger effect = lower value
In short: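 Patient-derived tumor cells grown as complex spheroids with HUVEC endothelial cells and mesenchymal stem cells, treated with drug combinations. Concentrations descend in half-log steps from near clinical Cmax, or from 10 microM if Cmax unknown.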

[1] = second compound 0.0316 µM, first compound 0.0316 µM
[2] = second compound 0.0316 µM, first compound 0.1 µM
[3] = second compound 0.0316 µM, first compound 0.316 µM
[4] = second compound 0.0316 µM, first compound 1 µM
[5] = second compound 0.0316 µM, first compound 3.16 µM
[6] = second compound 0.0316 µM, first compound 10 µM
[7] = second compound 0.1 µM, first compound 0.0316 µM
[8] = second compound 0.1 µM, first compound 0.1 µM
[9] = second compound 0.1 µM, first compound 0.316 µM
[10] = second compound 0.1 µM, first compound 1 µM
[11] = second compound 0.1 µM, first compound 3.16 µM
[12] = second compound 0.1 µM, first compound 10 µM
[13] = second compound 0.316 µM, first compound 0.0316 µM
[14] = second compound 0.316 µM, first compound 0.1 µM
[15] = second compound 0.316 µM, first compound 0.316 µM
[16] = second compound 0.316 µM, first compound 1 µM
[17] = second compound 0.316 µM, first compound 3.16 µM
[18] = second compound 0.316 µM, first compound 10 µM
[19] = second compound 1 µM, first compound 0.0316 µM
[20] = second compound 1 µM, first compound 0.1 µM
[21] = second compound 1 µM, first compound 0.316 µM
[22] = second compound 1 µM, first compound 1 µM
[23] = second compound 1 µM, first compound 3.16 µM
[24] = second compound 1 µM, first compound 10 µM
[25] = second compound 3.16 µM, first compound 0.0316 µM
[26] = second compound 3.16 µM, first compound 0.1 µM
[27] = second compound 3.16 µM, first compound 0.316 µM
[28] = second compound 3.16 µM, first compound 1 µM
[29] = second compound 3.16 µM, first compound 3.16 µM
[30] = second compound 3.16 µM, first compound 10 µM
[31] = second compound 10 µM, first compound 0.0316 µM
[32] = second compound 10 µM, first compound 0.1 µM
[33] = second compound 10 µM, first compound 0.316 µM
[34] = second compound 10 µM, first compound 1 µM
[35] = second compound 10 µM, first compound 3.16 µM
[36] = second compound 10 µM, first compound 10 µM
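Note: spheroids exposed to agents for seven days before readout.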
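Throughout, for viability, T/C: percent of DMSO vehicle control wells so 100% = untreated growth.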

Compound: COc1ccc([C@@H](O)c2cc(-c3ncnc4cc(N5CCOCC5)ccc34)c(F)cc2Cl)nn1 + CN1CCN(c2cc(C(=O)Nc3cc4cc(-c5cnn(C)c5)ccc4cn3)ccn2)CC1
- pIC50 (second compound 0.0316 µM): 5.11
- pIC50 (second compound 0.1 µM): 5.48
- pIC50 (second compound 0.316 µM): > 7.50
- pIC50 (second compound 1 µM): > 7.50
- pIC50 (second compound 3.16 µM): > 7.50
- pIC50 (second compound 10 µM): > 7.50
- viability, T/C [1]: 94.2%
- viability, T/C [2]: 100%
- viability, T/C [3]: 84%
- viability, T/C [4]: 89.7%
- viability, T/C [5]: 68.8%
- viability, T/C [6]: 44.5%
- viability, T/C [7]: 70.5%
- viability, T/C [8]: 80.3%
- viability, T/C [9]: 62.9%
- viability, T/C [10]: 61.8%
- viability, T/C [11]: 51%
- viability, T/C [12]: 37.8%
- viability, T/C [13]: 21.9%
- viability, T/C [14]: 23.9%
- viability, T/C [15]: 22.8%
- viability, T/C [16]: 21.1%
- viability, T/C [17]: 19.1%
- viability, T/C [18]: 21.1%
- viability, T/C [19]: 4.14%
- viability, T/C [20]: 3.13%
- viability, T/C [21]: 4.35%
- viability, T/C [22]: 2.76%
- viability, T/C [23]: 3.07%
- viability, T/C [24]: 4.48%
- viability, T/C [25]: 4.01%
- viability, T/C [26]: 4.31%
- viability, T/C [27]: 6.05%
- viability, T/C [28]: 4.02%
- viability, T/C [29]: 5.21%
- viability, T/C [30]: 4.73%
- viability, T/C [31]: 4.33%
- viability, T/C [32]: 5.55%
- viability, T/C [33]: 4.42%
- viability, T/C [34]: 5.56%
- viability, T/C [35]: 5.95%
- viability, T/C [36]: 6.95%

Compound: COc1cccc2c1C(=O)c1c(O)c3c(c(O)c1C2=O)CC(O)(C(=O)CO)CC3OC1CC(N)C(O)C(C)O1 (stereo unspecified) + CN1CCN(c2cc(C(=O)Nc3cc4cc(-c5cnn(C)c5)ccc4cn3)ccn2)CC1
- pIC50 (second compound 0.0316 µM): 6.93
- pIC50 (second compound 0.1 µM): > 7.50
- pIC50 (second compound 0.316 µM): > 7.50
- pIC50 (second compound 1 µM): > 7.50
- pIC50 (second compound 3.16 µM): > 7.50
- pIC50 (second compound 10 µM): > 7.50
- viability, T/C [1]: 67.8%
- viability, T/C [2]: 40.7%
- viability, T/C [3]: 39.4%
- viability, T/C [4]: 34.8%
- viability, T/C [5]: 25.3%
- viability, T/C [6]: 1.54%
- viability, T/C [7]: 54.4%
- viability, T/C [8]: 31.6%
- viability, T/C [9]: 29.3%
- viability, T/C [10]: 28.2%
- viability, T/C [11]: 19.1%
- viability, T/C [12]: 1.41%
- viability, T/C [13]: 20.3%
- viability, T/C [14]: 19.8%
- viability, T/C [15]: 16.1%
- viability, T/C [16]: 13.1%
- viability, T/C [17]: 5.8%
- viability, T/C [18]: 0.68%
- viability, T/C [19]: 2.27%
- viability, T/C [20]: 3.05%
- viability, T/C [21]: 2.16%
- viability, T/C [22]: 1.22%
- viability, T/C [23]: 1.2%
- viability, T/C [24]: 0.38%
- viability, T/C [25]: 4.1%
- viability, T/C [26]: 4.05%
- viability, T/C [27]: 2.98%
- viability, T/C [28]: 1.5%
- viability, T/C [29]: 1.35%
- viability, T/C [30]: 0.43%
- viability, T/C [31]: 4.15%
- viability, T/C [32]: 4.78%
- viability, T/C [33]: 4.17%
- viability, T/C [34]: 1.38%
- viability, T/C [35]: 1.47%
- viability, T/C [36]: 0.19%

Compound: O=c1[nH]cc(F)c(=O)[nH]1 + CN1CCN(c2cc(C(=O)Nc3cc4cc(-c5cnn(C)c5)ccc4cn3)ccn2)CC1
- pIC50 (second compound 0.0316 µM): 5.13
- pIC50 (second compound 0.1 µM): 5.50
- pIC50 (second compound 0.316 µM): > 7.50
- pIC50 (second compound 1 µM): > 7.50
- pIC50 (second compound 3.16 µM): > 7.50
- pIC50 (second compound 10 µM): > 7.50
- viability, T/C [1]: 99.5%
- viability, T/C [2]: 96.8%
- viability, T/C [3]: 99.3%
- viability, T/C [4]: 85.8%
- viability, T/C [5]: 63%
- viability, T/C [6]: 45.4%
- viability, T/C [7]: 62.8%
- viability, T/C [8]: 85.4%
- viability, T/C [9]: 73.5%
- viability, T/C [10]: 67.4%
- viability, T/C [11]: 50.2%
- viability, T/C [12]: 36.7%
- viability, T/C [13]: 26.1%
- viability, T/C [14]: 27%
- viability, T/C [15]: 26.6%
- viability, T/C [16]: 25.2%
- viability, T/C [17]: 24.5%
- viability, T/C [18]: 22.6%
- viability, T/C [19]: 3.34%
- viability, T/C [20]: 2.81%
- viability, T/C [21]: 3.78%
- viability, T/C [22]: 3.65%
- viability, T/C [23]: 4.75%
- viability, T/C [24]: 3.29%
- viability, T/C [25]: 4.71%
- viability, T/C [26]: 4.34%
- viability, T/C [27]: 4.13%
- viability, T/C [28]: 4.08%
- viability, T/C [29]: 6.26%
- viability, T/C [30]: 5.19%
- viability, T/C [31]: 3.98%
- viability, T/C [32]: 3.73%
- viability, T/C [33]: 3.94%
- viability, T/C [34]: 4.27%
- viability, T/C [35]: 7.34%
- viability, T/C [36]: 3.84%
